Measurements: US20060069132A1, “Azolecarboxamide herbicides” (priority 2004, published 2006)

Columns and labels:
windgrass = assay: Test F pre-/postemergence herbicide test; assay type: in vivo, Apera spica-venti
Source text: Seeds of plant species selected from annual blugrass (Poa annua L.), blackgrass (Alopecurus myosuroides Huds.), catchweed bedstraw (Gallium aparine L.), common chickweed (Stellaria media (L.) Vill./Cyr.), downy bromegrass (Bromus tectorum L.), green foxtail (Setaria viridis (L.) Beauv.), Italian ryegrass (Lolium multiflorum Lam.), kochia (Kochia scoparia (L.). Schrad.), lambsquarters (Chenopodium album L.), littleseed canarygrass (Phalaris minor Retz.), pigweed (Amaranthus retroflexus L.), Russian thistle (Salsola kali L. ssp. Ruthenica (Iljin) Soo), wild buckwheat (Polygonum convolvulus L.), wild mustard (Sinapis arvensis L.), wild oat (Avena fatua L.), windgrass (Apera spica-venti (L.) Beauv.), winter barley (Hordeum vulgare L.), and wheat (Triticum aestivum L.) were planted and treated preemergence with test chemicals formulated in a non-phytotoxic solvent mixture which included a surfactant.
At the same time, plants selected from these crop and weed species were treated with postemergence applications of some of the test chemicals formulated in the same manner. Plants ranged in height from 2 to 18 cm (1- to 4-leaf stage) for postemergence treatments. Treated plants and controls were maintained in a greenhouse for 12 to 14 days, after which time all species were compared to controls and visually evaluated. Plant response ratings, summarized in Table F, are based on a scale of 0 to 100 where 0 is no effect and 100 is complete control. A dash (-) response means no test result.

Surinam grass (BRADC) = assay: Test J Compounds 2 and 6 alone and in combination with other herbicides, foliage spray; assay type: in vivo, Urochloa decumbens; design: key to BRADC Obsd.: 0 = no effect, 100 = complete control; details: for BRADC Obsd.: applied alone; for observed effect of mixture compared with additive effect expected from Colby's Equation: Surinam grass, foliage spray, 15 days after treatment
Source text: (§1) Colby's Equation was used to calculate the expected additive herbicidal effect of the mixtures of Compound 6 with Harmony® Extra (i.e. a 2:1 mixture by weight of thifensulfuron-methyl and tribenuron-methyl). Colby's Equation (Colby, S. R. “Calculating Synergistic and Antagonistic Responses of Herbicide Combinations,” Weeds, 15(1), pp 20-22 (1967)) calculates the expected additive effect of herbicidal mixtures, and for two active ingredients is of the form: Pa+b=Pa+Pb−(PaPb/100) wherein • Pa+b is the percentage effect of the mixture expected from additive contribution of the individual components, • Pa is the observed percentage effect of the first active ingredient at the same use rate as in the mixture, and • Pb is the observed percentage effect of the second active ingredient at the same use rate as in the mixture.
Seeds of test plants consisting of barnyardgrass (ECHCG; Echinochloa crus-galli (L.) Beauv.), blackgrass (ALOMY; Alopecurus myosuroides Huds.), Surinam grass (BRADC; Urochloa decumbens (Staph) R. D. Webster, previously named Brachiaria decumbens Stapf), cocklebur (XANST, Xanthium strumarium L.), corn (ZEAMD, Zea mays L. cv. ‘Pioneer 33G26’), large crabgrass (DIGSA, Digitaria sanguinalis (L.) Scop.), giant foxtail (SETFA, Setaria faberi Herrm.), lambsquarters (CHEAL, Chenopodium album L.), morningglory (IPOCO, Ipomoea coccinea L.), pigweed (AMARE, Amaranthus retroflexus L.), velvetleaf (ABUTH, Abutilon theophrasti Medik.) wheat (TRZAS, Triticum aestivum L. cv. ‘Recital’) and wild oat (AVEFA, Avena fatua L.) were planted in Redi-Earth® planting medium (Scotts Company, 14111 Scottslawn Road, Marysville, Ohio 43041) comprising spaghnum peat moss and vermiculite. Seeds of small-seeded species were planted about 1 cm deep; larger seeds were planted about 2.5 cm deep. Plants were grown in a greenhouse using supplemental lighting to maintain a photoperiod of about 14 hours; daytime and nighttime temperatures were about 24-30° C. and 22-25° C., respectively. Balanced fertilizer was applied through the watering system. The plants were grown for 7 to 11 days so that at time of treatment the plants ranged in height from 2 to 18 cm (1- to 4-leaf stage). Treatments consisted of Compounds 2 and 6 (technical material), atrazine (90DF), terbacil (Sinbar® 80DF), hexazinone (Velpar® 75WG), diuron (Karmex® 80WP) and paraquat (Gramoxone® Extra, 37%) alone and in combination, suspended or dissolved in an aqueous solvent comprising a nonionic surfactant and applied as a foliage spray using a volume of 541 L/ha. Each treatment was triply replicated. […] Treated plants and controls were maintained in the greenhouse and watered as needed with care to not wet the foliage for the first 24 hours after treatment. The effects on the plants 15 days after treatment were visually compared to untreated controls. Plant response ratings, listed in Table J as the means of the thee replicates, are based on a scale of 0 to 100 where 0 is no effect and 100 is complete control. Also listed in Table J are the expected effects for the mixtures calculated using Colby's Equation.

wheat cv. Recital = assay: Test I safening of Compound 6 by Harmony Extra Herbicide, pre-/postemergence; assay type: in vivo, Triticum aestivum
Method: This test evaluated the safening of Compound 6 on barley (Hordeum vulgare L.) cv. ‘Boone’ and wheat (Triticum aestivum L.) cv. ‘Recital’ by Harmony® Extra Herbicide, which comprises 50 wt % thifensulfuron-methyl and 25 wt % tribenuron-methyl. Barley and wheat seeds were planted in pots containing a pasteurized blend of Matapeake soil and sand. For postemergence testing the plants were grown 10 days so the barley seedlings were at the 2-leaf stage and the wheat seedlings were at the 2-3-leaf stage at time of treatment. Preemergence treatments were applied the day after the seeds were planted. Treatments were applied by spraying Compound 6 and/or […] in a non-phytotoxic solvent mixture, using flat fan nozzle and a spray volume of 280 L/ha. The treatments were triply replicated and the results subsequently averaged. The pots were placed on a greenhouse bench using a complete randomized block design except for the first replicate, which was unrandomized. The plants were grown in the greenhouse and watered as needed with a dilute nutrient solution containing 200 ppm of N. Illumination was daylight supplemented by artificial sources to maintain a photoperiod of 14 hours. The temperature was maintained at 23±2° C. during the day and 17±2° C. at night. The effects of the treatments were rated 25 days after preemergence treatment and 15 days after postemergence treatment. The plant response was visually rated in comparison to untreated controls using a scale of 0 to 100, with 0 representing no effect and 100 representing complete plant death.
as §1
The results and additive effects expected from Colby's Equation for the preemergence test are listed in Table I1, and the results and additive effects expected from Colby's Equation for the postemergence test are listed in Table I2.

Row | Structure (SMILES) | Plant response rating (0-100), Windgrass (windgrass; Postemergence, 31 g ai/ha) | Plant response rating (0-100), Windgrass (windgrass; Postemergence, 62 g ai/ha) | Plant response rating (0-100), Windgrass (windgrass; Postemergence, 125 g ai/ha) | Plant response rating (0-100), Windgrass (windgrass; Postemergence, 250 g ai/ha) | Plant response rating (0-100), Windgrass (windgrass; Preemergence, 31 g ai/ha) | Plant response rating (0-100), Windgrass (windgrass; Preemergence, 62 g ai/ha) | Plant response rating (0-100), Windgrass (windgrass; Preemergence, 125 g ai/ha) | Plant response rating (0-100), Windgrass (windgrass; Preemergence, 250 g ai/ha) | BRADC Obsd. (Surinam grass (BRADC); 62 g a.i./ha) | BRADC Obsd. (Surinam grass (BRADC); 125 g a.i./ha) | observed effect of mixture compared with additive effect expected from Colby's Equation (Surinam grass (BRADC); mixture with diuron) | observed effect of mixture compared with additive effect expected from Colby's Equation (Surinam grass (BRADC); mixture with diuron, listed as compound 6) | observed effect of mixture compared with additive effect expected from Colby's Equation (Surinam grass (BRADC); mixture with hexazinone) | observed effect of mixture compared with additive effect expected from Colby's Equation (Surinam grass (BRADC); mixture with hexazinone, listed as compound 6) | observed effect of mixture compared with additive effect expected from Colby's Equation (Surinam grass (BRADC); mixture with terbacil) | Wheat Observed effect (wheat cv. Recital; postemergence, Compound 6 16, thifensulfuron-methyl 0, tribenuron-methyl 0 g a.i./ha) | Wheat Observed effect (wheat cv. Recital; postemergence, Compound 6 31, thifensulfuron-methyl 0, tribenuron-methyl 0 g a.i./ha) | Wheat Observed effect (wheat cv. Recital; preemergence, Compound 6 16, thifensulfuron-methyl 0, tribenuron-methyl 0 g a.i./ha) | Wheat Observed effect (wheat cv. Recital; preemergence, Compound 6 31, thifensulfuron-methyl 0, tribenuron-methyl 0 g a.i./ha)
1 | CCn1nc(C(C)(C)C)cc1C(=O)Nc1cc(C(=O)OC(C)C)c(F)cc1F [Compound 248] | 50 | 50 | 50 | 50 | 70 | 70 | 100 | 100 |  |  |  |  |  |  |  |  |  |  | 
2 | CCn1nc(C(C)(C)C)cc1C(=O)Nc1cc(C(=O)N(C)C)ccc1F [Compound 6, N-[5-[(dimethylamino)carbonyl]-2-fluorophenyl]-3-(1,1-dimethylethyl)-1-ethyl-1H-pyrazole-5-carboxamide] |  |  |  |  |  |  |  |  | 15 | 40 | greater than additive | synergistic activity | greater than additive | synergistic activity | greater than additive | 58 | 65 | 45 | 67
